{"source": "paper PMC11181478", "about": "“SARS-CoV-2 Main Protease Inhibitors That Leverage Unique Interactions with the Solvent Exposed S3 Site of the Enzyme” (ACS Medicinal Chemistry Letters, 2024)", "test_system": "SARS-CoV-2 delta variant (hCoV-19/USA/MD-HP05647/2021)", "test": "Live virus antiviral test in A549-hACE2 cells (RT-qPCR)", "assay_type": "cell-based", "details": "Severe acute respiratory syndrome coronavirus 2, 72 h", "data": [{"smiles": "CC1(C)[C@@H]2[C@@H](C(=O)N[C@H](C=O)C[C@@H]3CCNC3=O)N(C(=O)[C@H](CC3CCCCC3)NC(=O)OCc3ccccc3)C[C@@H]21", "note": "[MPI100]", "values": [{"measurement": "EC50", "result": 3.4, "unit": "µM"}]}]}
